Laboratory results from ChEMBL document CHEMBL3632556, “Synthesis and biological evaluation of new C-10 substituted dithranol pleiotropic hybrids” (Bioorg Med Chem, 2015).
Each block holds one compound with its values, some of them ahead of it.

Experiments:
[1] = Antioxidant activity assessed as inhibition of AAPH-induced linoleic acid lipid peroxidation at 100 uM; type: physicochemical
[2] = Antioxidant activity assessed as increase of DPPH free radical scavenging activity by measuring reducing activity at 100 uM after 60 mins by spectrophotometry; type: physicochemical; conditions: 1 h
[3] = Antioxidant activity assessed as DPPH free radical scavenging activity by measuring reducing activity at 100 uM after 20 mins by spectrophotometry; type: physicochemical; set-up: scale not given: the % may be the effect or the level left
Glycine max = experiment: Inhibition of soybean LOX assessed as reduction in conversion of sodium linoleate to 13-hydroperoxylinoleic acid at 100 uM by UV analysis
Rattus norvegicus [4] = experiment: Acute toxicity in Fisher 344 rat up to 0.1 mmol/kg, ip; type: organism-based; conditions: in vivo
[5] = Lipophilicity, RM of the compound by RP-TLC method; type: physicochemical
[6] = Cytotoxicity against human HaCaT cells assessed as cell survival at 1 uM after 48 hrs by MTT assay (reference value: 97.50 +/- 0.71%); type: cell-based; conditions: read-out: Survival
[7] = Cytotoxicity against human HaCaT cells assessed as cell survival at 0.01 uM after 48 hrs by MTT assay (reference value: 100%); type: cell-based; conditions: read-out: Survival
[8] = Cytotoxicity against human HaCaT cells assessed as cell survival at 10 uM after 48 hrs by MTT assay (reference value: 95.75 +/- 2.47%); type: cell-based; conditions: read-out: Survival
[9] = Cytotoxicity against human HaCaT cells assessed as cell survival at 0.1 uM after 48 hrs by MTT assay (reference value: 96.75 +/- 1.77%); type: cell-based; conditions: read-out: Survival
HaCaT [10] = experiment: Antiproliferative activity against human HaCaT cells after 24 hrs by MTT assay; type: functional, cell-based
[11] = Cytotoxicity against human HaCaT cells assessed as cell survival at 100 uM after 48 hrs by MTT assay (reference value: 88.07 +/- 9.81%); type: cell-based; conditions: read-out: Survival
[12] = Inhibition of soybean LOX assessed as reduction in conversion of sodium linoleate to 13-hydroperoxylinoleic acid by UV analysis; set-up: species or system Glycine max
Rattus norvegicus [13] = experiment: Anti-inflammatory activity in Fisher 344 rat assessed as inhibition of carrageenan-induced paw edema at 0.01 mmol/kg, ip after 3.5 hrs; type: functional; conditions: Fisher 344, ip
[14] = Drug metabolism in DMSO assessed as formation of oxidative product danthron at 1 mM after 2 days by HPLC analysis; type: physicochemical; conditions: 48 h, 1000 µM
[15] = Chemical stability in DMSO assessed as compound degradation at 1 mM after 5 days by HPLC analysis; type: physicochemical; conditions: 120 h, 1000 µM
[16] = Drug degradation in DMSO up to 48 hrs; type: physicochemical
HaCaT [17] = experiment: Antiproliferative activity against human HaCaT cells; type: functional, cell-based

Structure (SMILES): NCCCCN(CCCN)C(=O)CC1c2cccc(O)c2C(=O)c2c(O)cccc21.O=C(O)C(F)(F)F.O=C(O)C(F)(F)F
inhibition (INH) [1]: 74%
Activity [2]: Not Active
Activity [3]: 48%
inhibition (Glycine max): 26%
Activity (Rattus norvegicus [4]): Non-toxic

Structure (SMILES): CCOC(=O)CC1c2cccc(O)c2C(=O)c2c(O)cccc21
inhibition (INH) [1]: 14%
Activity [2]: Active
Rm [5]: 0.63
Activity [3]: 31%
viability at 48 h, 1 µM [6]: 49.9%
viability at 48 h, 0.01 µM [7]: 47%
viability at 48 h, 10 µM [8]: 28.8%
Activity (Rattus norvegicus [4]): Non-toxic
viability at 48 h, 0.1 µM [9]: 53.4%
IC50 (HaCaT [10]): 0.357 µM
viability at 48 h, 100 µM [11]: 6.5%
IC50 ([12]; read-out: IC50): 44.5 µM

Structure (SMILES): CCCCNC(=O)CC1c2cccc(O)c2C(=O)c2c(O)cccc21
inhibition (INH) [1]: 59%
Activity [2]: Active
Rm [5]: 0.05
Activity [3]: 31%
viability at 48 h, 1 µM [6]: 80.9%
viability at 48 h, 0.01 µM [7]: 87.2%
viability at 48 h, 10 µM [8]: 24.4%
Activity (Rattus norvegicus [4]): Non-toxic
inhibition in vivo at 10 µmol/kg (Rattus norvegicus [13]): 35%
viability at 48 h, 0.1 µM [9]: 83.7%
IC50 (HaCaT [10]): 5.4 µM
viability at 48 h, 100 µM [11]: 13.7%
IC50 ([12]; read-out: IC50): 10 µM

Structure (SMILES): CC(C)(C)OC(=O)NCCCCNC(=O)CC1c2cccc(O)c2C(=O)c2c(O)cccc21
inhibition (INH) [1]: 62%
Activity [2]: Not Active
Activity [3]: 33%
inhibition (Glycine max): 46%
Activity (Rattus norvegicus [4]): Non-toxic

Activity [2]: Not Active
Activity [3]: 81%
Structure (SMILES): CC(Cc1ccc(O)c(O)c1)C(C)Cc1ccc(O)c(O)c1 (stereo unspecified) [NORDIHYDROGUAIARETIC ACID]

Structure (SMILES): NCCCCNC(=O)CC1c2cccc(O)c2C(=O)c2c(O)cccc21.O=C(O)C(F)(F)F
inhibition (INH) [1]: 91%
Activity [2]: Not Active
Rm [5]: 0.63
Activity [3]: 65%
inhibition (Glycine max): 35%
Activity (Rattus norvegicus [4]): Non-toxic

Structure (SMILES): NCCCNCCCCNCCCNC(=O)CC1c2cccc(O)c2C(=O)c2c(O)cccc21.O=C(O)C(F)(F)F.O=C(O)C(F)(F)F.O=C(O)C(F)(F)F
inhibition (INH) [1]: 87%
Activity [2]: Not Active
Activity [3]: 93%
Activity (Rattus norvegicus [4]): Non-toxic
IC50 [12]: Not Active

Structure (SMILES): COc1ccc2c(c1)c(CC(=O)O)c(C)n2C(=O)c1ccc(Cl)cc1 [INDOMETHACIN]
inhibition in vivo at 10 µmol/kg (Rattus norvegicus [13]): 47%

inhibition (INH) [1]: 63%
Structure (SMILES): Cc1c(C)c2c(c(C)c1O)CCC(C)(C(=O)O)O2 (stereo unspecified) [TROLOX]

Structure (SMILES): CCCCCCCCCCCCNC(=O)CC1c2cccc(O)c2C(=O)c2c(O)cccc21
inhibition (INH) [1]: 74%
Activity [2]: Not Active
Activity [3]: 98%
viability at 48 h, 1 µM [6]: 14.6%
viability at 48 h, 0.01 µM [7]: 55.9%
inhibition (Glycine max): 32%
viability at 48 h, 10 µM [8]: 7.79%
Activity (Rattus norvegicus [4]): Non-toxic
viability at 48 h, 0.1 µM [9]: 37.7%
IC50 (HaCaT [10]): 0.022 µM
viability at 48 h, 100 µM [11]: 1.22%

Structure (SMILES): O=C(CC1c2cccc(O)c2C(=O)c2c(O)cccc21)NCCc1ccc(O)c(O)c1
inhibition (INH) [1]: 5%
Activity [2]: Not Active
Activity [3]: 32%
viability at 48 h, 1 µM [6]: 112%
viability at 48 h, 0.01 µM [7]: 91.1%
inhibition (Glycine max): 42%
viability at 48 h, 10 µM [8]: 128%
Activity (Rattus norvegicus [4]): Non-toxic
viability at 48 h, 0.1 µM [9]: 114%
IC50 (HaCaT [10]): 100 µM
viability at 48 h, 100 µM [11]: 2.98%

Structure (SMILES): O=C(CC1c2cccc(O)c2C(=O)c2c(O)cccc21)NCc1ccccc1
inhibition (INH) [1]: 66%
Activity [2]: Active
Rm [5]: 0.66
Activity [3]: 20%
Activity (Rattus norvegicus [4]): Non-toxic
inhibition in vivo at 10 µmol/kg (Rattus norvegicus [13]): 35%
IC50 ([12]; read-out: IC50): 7.9 µM

Structure (SMILES): CC(C)(C)OC(=O)NCCCN(CCCCN(CCCNC(=O)CC1c2cccc(O)c2C(=O)c2c(O)cccc21)C(=O)OC(C)(C)C)C(=O)OC(C)(C)C
inhibition (INH) [1]: 93%
Activity [2]: Not Active
Activity [3]: 29%
Activity (Rattus norvegicus [4]): Non-toxic
IC50 [12]: Not Active

Structure (SMILES): COc1ccc(C(NC(=O)CC2c3cccc(O)c3C(=O)c3c(O)cccc32)c2ccc(OC)cc2)cc1
inhibition (INH) [1]: 95%
Activity [2]: Active
Stability [14]: Stable
Stability [15]: Stable
Rm [5]: 0.66
Activity [3]: 86%
viability at 48 h, 1 µM [6]: 38%
viability at 48 h, 0.01 µM [7]: 79.8%
viability at 48 h, 10 µM [8]: 20.3%
Activity (Rattus norvegicus [4]): Non-toxic
inhibition in vivo at 10 µmol/kg (Rattus norvegicus [13]): 79.7%
viability at 48 h, 0.1 µM [9]: 44%
IC50 (HaCaT [10]): 0.56 µM
viability at 48 h, 100 µM [11]: 9.65%
IC50 ([12]; read-out: IC50): 7 µM

Stability [16]: Unstable
Structure (SMILES): O=C1c2cccc(Cl)c2Cc2c(Cl)cccc21

Structure (SMILES): COc1ccc(C(NC(C)=O)c2ccc(OC)cc2)cc1
inhibition (INH) [1]: 94%
Activity [2]: Not Active
Activity [3]: Not Active
Activity (Rattus norvegicus [4]): Non-toxic
inhibition in vivo at 10 µmol/kg (Rattus norvegicus [13]): 45%
IC50 ([12]; read-out: IC50): 100 µM

Structure (SMILES): CC(C)(C)OC(=O)CC1c2cccc(O)c2C(=O)c2c(O)cccc21
inhibition (INH) [1]: 79%
Activity [2]: Active
Activity [3]: 9%
Activity (Rattus norvegicus [4]): Non-toxic
IC50 [12]: Not Active

Structure (SMILES): COc1ccc(CNC(=O)CC2c3cccc(O)c3C(=O)c3c(O)cccc32)c(OC)c1
inhibition (INH) [1]: 81%
Activity [2]: Not Active
Activity [3]: 87%
viability at 48 h, 1 µM [6]: 135%
viability at 48 h, 0.01 µM [7]: 92.3%
viability at 48 h, 10 µM [8]: 8.42%
Activity (Rattus norvegicus [4]): Non-toxic
viability at 48 h, 0.1 µM [9]: 134%
IC50 (HaCaT [10]): 10 µM
viability at 48 h, 100 µM [11]: 0.05%
IC50 ([12]; read-out: IC50): 50 µM

inhibition (INH) [1]: Not Active
Activity [2]: Not Active
Activity [3]: 4%
IC50 [12]: Not Active
Structure (SMILES): NCCCNCCCCNCCCN [SPERMINE]

Structure (SMILES): O=C1c2c(O)cccc2Cc2cccc(O)c21 [ANTHRALIN]
inhibition (INH) [1]: 28%
Activity [2]: Active
Rm [5]: 0.7
Activity [3]: 31%
viability at 48 h, 1 µM [6]: 48.1%
IC50 (HaCaT [17]): 0.7 µM
viability at 48 h, 0.01 µM [7]: 94.5%
viability at 48 h, 10 µM [8]: 5.23%
Activity (Rattus norvegicus [4]): Non-toxic
inhibition in vivo at 10 µmol/kg (Rattus norvegicus [13]): 42%
viability at 48 h, 0.1 µM [9]: 87.8%
IC50 (HaCaT [10]): 0.945 µM
viability at 48 h, 100 µM [11]: 1.7%
IC50 [12]: Not Active

Structure (SMILES): NCCc1ccc(O)c(O)c1 [DOPAMINE]
inhibition (INH) [1]: 43%
Activity [2]: Not Active
Activity [3]: 86%
inhibition in vivo at 10 µmol/kg (Rattus norvegicus [13]): 13%
IC50 ([12]; read-out: IC50): 100 µM

inhibition (INH) [1]: Not Active
Activity [2]: Not Active
Activity [3]: Not Active
IC50 [12]: Not Active
Structure (SMILES): NCCCCNCCCN [SPERMIDINE]

Structure (SMILES): COc1ccc(CNC(=O)CC2c3cccc(O)c3C(=O)c3c(O)cccc32)cc1OC
inhibition (INH) [1]: 65%
Activity [2]: Not Active
Activity [3]: 61%
viability at 48 h, 1 µM [6]: 12.3%
viability at 48 h, 0.01 µM [7]: 18.5%
viability at 48 h, 10 µM [8]: 3%
Activity (Rattus norvegicus [4]): Non-toxic
viability at 48 h, 0.1 µM [9]: 13.3%
viability at 48 h, 100 µM [11]: 0%
IC50 ([12]; read-out: IC50): 61.5 µM

Structure (SMILES): O=C(O)CC1c2cccc(O)c2C(=O)c2c(O)cccc21
inhibition (INH) [1]: 20%
Activity [2]: Active
Activity [3]: 25%
viability at 48 h, 1 µM [6]: 60.4%
viability at 48 h, 0.01 µM [7]: 87.1%
viability at 48 h, 10 µM [8]: 42%
Activity (Rattus norvegicus [4]): Non-toxic
inhibition in vivo at 10 µmol/kg (Rattus norvegicus [13]): 13%
viability at 48 h, 0.1 µM [9]: 58%
IC50 (HaCaT [10]): 1.9 µM
viability at 48 h, 100 µM [11]: 41.2%
IC50 ([12]; read-out: IC50): 50 µM
